Data reported in patent US20260294915A1, “COMBINATION THERAPY COMPRISING A MAT2A INHIBITOR AND A TOPOISOMERASE INHIBITOR, A SPLICING INHIBITOR SULFONAMIDE, OR A KIF18 INHIBITOR” (IDEAYA BIOSCIENCES, INC., priority 2023, published 2026).
Marks after values point to notes of the source that are not given here.

What was measured:
Test in all cases: 10-day proliferation (CTG), SPLAM titration + 1000 nM Compound A, Bliss (Example 5; Tables 12-19)
Type in all cases: cell-based
Parameters in all cases: key: GDI scale -100 to 100; 0 = cell number at T0; <0 cytotoxic
[1] = system: NCI-H838
Description: (§1) Synergy was measured across the Indisulam titration with 1000 nM Compound A by Bliss Independence analysis. Bliss scores >10 are indicated by “*” and are considered synergistic. […] Synergy as reported using Bliss may be underrepresented within cytotoxic dose ranges. Growth death index values are shown for the combination titration and each single agent Compound A (Cmpd A) and Indisulam on a scale of −100 to 100 with the midpoint (0) being the number of cells at the beginning of the combination (T0). Scores less than 0 are indicated with “**” and are representative of a cytotoxic response. Bliss and GDI values are shown for five MTAP-deficient cell lines: NCI-1H838 (12A), SW900 (12B), RT112/84 (12C), UMUC5 (121D), and UMUC11 (12E).
(§2) A 10-day proliferation assay was performed in a panel of 5 MTAP-deficient and 2 wild type non-small cell lung and bladder cancer cell lines. Optimal cell seeding for all cell lines was determined by assessing the growth over a range of seeding densities in a 384-well format to identify conditions that permitted proliferation for 10 days. Cells were then plated at the optimal seeding density and treated with 20-point, two-fold dilution series of each of four structurally different SPLAMs in combination with a 1000 nM fixed concentration of Compound A. Single agent titrations for Compound A and each SPLAM were included for comparison. Concentrations tested for each SPLAM alone or in combination ranged from 0.04 nM to 20,000 nM. A plate of cells was harvested at the time of compound addition to quantify the number of cells at the start of the combination (T0). For cell quantification, the harvested cells were lysed with Promega CellTiter-Glo (CTG) reagent according to the manufacturer's protocol and the chemiluminescent signal was detected as described in Example 1 above. Cells were incubated with the drug combinations at 37° C. with 5% CO2 for 10 days. Cells were then lysed with CTG and the chemiluminescent signal was measured.
(§3) CTG values obtained after the 10-day treatment were background subtracted and expressed as a percent of the T0 value set at 100%. Data were plotted against compound concentration and fit with a four-parameter equation to generate single agent dose response curves. Percent inhibition was determined for each combination and single agent concentration compared to a DMSO control. In addition, the overall net growth or death of the cells was calculated and reported as a growth death index (GDI) value on a scale of −100 to 100 with the midpoint (0) being the number of cells at the beginning of the combination (T0).
(§4) Predicted inhibition was calculated using (Ea+Eb)−(Ea*Eb) where E equals the effect (inhibition) of each single agent (a and b). A difference between the observed inhibition percentage and the predicted inhibition percentage greater than 10% was considered synergistic. A Bliss score was only reported for combinations eliciting >20% growth inhibition (GDI value <80). Since Bliss is calculated based on growth inhibition, scores within cytotoxic dose ranges may not accurately reflect synergistic cytoxicity.
(§5) Synergy was measured across the E7820 titration with 1000 nM Compound A by Bliss Independence analysis. Bliss scores >10 are indicated by “*” and are considered synergistic. […] Synergy as reported using Bliss may be underrepresented within cytotoxic dose ranges. Growth death index values are shown for the combination titration and each single agent Compound A (Cmpd A) and Indisulam on a scale of −100 to 100 with the midpoint (0) being the number of cells at the beginning of the combination (T0). Scores less than 0 are indicated by “**” and are representative of a cytotoxic response. Bliss and GDI values are shown for five MTAP-deficient cell lines: NCI-1H838 (14A), SW900 (14B), RT112/84 (14C), UMUC5 (141)), and UMUC11 (14E).
(§6) Synergy was measured across the Chloroquinoxaline Sulfonamide titration with 1000 nM Compound A by Bliss Independence analysis.

[2] = system: RT112/84; settings: for GDI (growth death index), single agent Cmpd A: RT112/84, 1000 nM Compound A
Description: as §1, §2, §3, §4, §5, §6

[3] = system: UMUC11; settings: for GDI (growth death index), single agent Cmpd A: UMUC11, 1000 nM Compound A
Description: as §1, §2, §3, §4, §5, §6

[4] = system: UMUC5; settings: for GDI (growth death index), single agent Cmpd A: UMUC5, 1000 nM Compound A
Description: as §1, §2, §3, §4, §5, §6

[5] = SPLAM 0.04 nM, alone or + 1 uM Cmpd A
[6] = SPLAM 0.1 nM, alone or + 1 uM Cmpd A
[7] = SPLAM 0.2 nM, alone or + 1 uM Cmpd A
[8] = SPLAM 0.3 nM, alone or + 1 uM Cmpd A
[9] = SPLAM 0.6 nM, alone or + 1 uM Cmpd A
[10] = SPLAM 1.2 nM, alone or + 1 uM Cmpd A
[11] = SPLAM 2.4 nM, alone or + 1 uM Cmpd A
[12] = SPLAM 4.9 nM, alone or + 1 uM Cmpd A
[13] = SPLAM 9.8 nM, alone or + 1 uM Cmpd A
[14] = SPLAM 19.5 nM, alone or + 1 uM Cmpd A
[15] = SPLAM 39.1 nM, alone or + 1 uM Cmpd A
[16] = SPLAM 78.1 nM, alone or + 1 uM Cmpd A
[17] = SPLAM 156.3 nM, alone or + 1 uM Cmpd A
[18] = SPLAM 312.5 nM, alone or + 1 uM Cmpd A
[19] = SPLAM 625 nM, alone or + 1 uM Cmpd A
[20] = SPLAM 1250 nM, alone or + 1 uM Cmpd A
[21] = SPLAM 2500 nM, alone or + 1 uM Cmpd A
[22] = SPLAM 5000 nM, alone or + 1 uM Cmpd A
[23] = SPLAM 10000 nM, alone or + 1 uM Cmpd A
[24] = SPLAM 20000 nM, alone or + 1 uM Cmpd A

Nc1nc(=O)n(-c2ccccc2Cl)c2nc(C(F)(F)F)ccc12 [Compound A]
GDI (growth death index), single agent Cmpd A ([1]; NCI-H838, 1000 nM Compound A, Table 18A): 49 | GDI ([1]; single agent Cmpd A, 1000 nM): 49 | GDI (growth death index), single agent Cmpd A ([2]; Table 16C): 62 | GDI (growth death index), single agent Cmpd A ([2]; Table 18C): 62 | GDI ([2]; single agent Cmpd A, 1000 nM): 62 | GDI (growth death index), single agent Cmpd A ([3]; Table 16E): 100 | GDI (growth death index), single agent Cmpd A ([3]; Table 18E): 100 | GDI ([3]; single agent Cmpd A, 1000 nM): 100 | GDI (growth death index), single agent Cmpd A ([4]; Table 16D): 58 | GDI (growth death index), single agent Cmpd A ([4]; Table 18D): 58 | GDI ([4]; single agent Cmpd A, 1000 nM): 58

NS(=O)(=O)c1ccc(S(=O)(=O)Nc2cccc3c(Cl)c[nH]c23)cc1 [Indisulam, N-(3-chloro-1H-indol-7-yl)benzene-1,4-disulfonamide]
GDI [1, 5]: 100 | GDI [1, 6]: 100 | GDI [1, 7]: 100 | GDI [1, 8]: 100 | GDI [1, 9]: 100 | GDI [1, 10]: 100 | GDI [1, 11]: 100 | GDI [1, 12]: 100 | GDI [1, 13]: 100 | GDI [1, 14]: 100 | GDI [1, 15]: 100 | GDI [1, 16]: 100 | GDI [1, 17]: 100 | GDI [1, 18]: 54 | GDI [1, 19]: 11 | GDI [1, 20]: 2 | GDI [1, 21]: 1 | GDI [1, 22]: −13** | GDI [1, 23]: −50** | GDI [1, 24]: −52** | GDI [2, 5]: 98 | GDI [2, 6]: 100 | GDI [2, 7]: 100 | GDI [2, 8]: 100 | GDI [2, 9]: 96 | GDI [2, 10]: 95 | GDI [2, 11]: 100 | GDI [2, 12]: 100 | GDI [2, 13]: 100 | GDI [2, 14]: 100 | GDI [2, 15]: 100 | GDI [2, 16]: 100 | GDI [2, 17]: 99 | GDI [2, 18]: 44 | GDI [2, 19]: 12 | GDI [2, 20]: −34** | GDI [2, 21]: −76** | GDI [2, 22]: −63** | GDI [2, 23]: −74** | GDI [2, 24]: −92** | GDI [3, 5]: 100 | GDI [3, 6]: 100 | GDI [3, 7]: 100 | GDI [3, 8]: 100 | GDI [3, 9]: 100 | GDI [3, 10]: 100 | GDI [3, 11]: 100 | GDI [3, 12]: 100 | GDI [3, 13]: 100 | GDI [3, 14]: 100 | GDI [3, 15]: 100 | GDI [3, 16]: 100 | GDI [3, 17]: 100 | GDI [3, 18]: 73 | GDI [3, 19]: 35 | GDI [3, 20]: 13 | GDI [3, 21]: 5 | GDI [3, 22]: 2 | GDI [3, 23]: 2 | GDI [3, 24]: 1 | GDI [4, 5]: 100 | GDI [4, 6]: 100 | GDI [4, 7]: 100 | GDI [4, 8]: 100 | GDI [4, 9]: 100 | GDI [4, 10]: 98 | GDI [4, 11]: 100 | GDI [4, 12]: 100 | GDI [4, 13]: 100 | GDI [4, 14]: 100 | GDI [4, 15]: 100 | GDI [4, 16]: 100 | GDI [4, 17]: 94 | GDI [4, 18]: 69 | GDI [4, 19]: 26 | GDI [4, 20]: 5 | GDI [4, 21]: 3 | GDI [4, 22]: 3 | GDI [4, 23]: 2 | GDI [4, 24]: 2
